In PMC10627047, “Flavone-based dual PARP-Tubulin inhibitor manifesting efficacy against endometrial cancer” (Journal of Enzyme Inhibition and Medicinal Chemistry, 2023):
Where “and” joins values, the source holds several entries; their conditions need not be identical. Identical values can stand only once.

Columns and labels:
PARP1 = target: T1, PARP1 (Homo sapiens, UniProt P09874); assay: PARP inhibitory assay (NAD/NADH-Glo endpoint, Reaction Biology); assay type: biochemical; conditions: 10-dose IC50, 3-fold serial dilution
T1 construct: Reaction Biology Corporation (assay service)
T1 sequence (P09874 whole entry): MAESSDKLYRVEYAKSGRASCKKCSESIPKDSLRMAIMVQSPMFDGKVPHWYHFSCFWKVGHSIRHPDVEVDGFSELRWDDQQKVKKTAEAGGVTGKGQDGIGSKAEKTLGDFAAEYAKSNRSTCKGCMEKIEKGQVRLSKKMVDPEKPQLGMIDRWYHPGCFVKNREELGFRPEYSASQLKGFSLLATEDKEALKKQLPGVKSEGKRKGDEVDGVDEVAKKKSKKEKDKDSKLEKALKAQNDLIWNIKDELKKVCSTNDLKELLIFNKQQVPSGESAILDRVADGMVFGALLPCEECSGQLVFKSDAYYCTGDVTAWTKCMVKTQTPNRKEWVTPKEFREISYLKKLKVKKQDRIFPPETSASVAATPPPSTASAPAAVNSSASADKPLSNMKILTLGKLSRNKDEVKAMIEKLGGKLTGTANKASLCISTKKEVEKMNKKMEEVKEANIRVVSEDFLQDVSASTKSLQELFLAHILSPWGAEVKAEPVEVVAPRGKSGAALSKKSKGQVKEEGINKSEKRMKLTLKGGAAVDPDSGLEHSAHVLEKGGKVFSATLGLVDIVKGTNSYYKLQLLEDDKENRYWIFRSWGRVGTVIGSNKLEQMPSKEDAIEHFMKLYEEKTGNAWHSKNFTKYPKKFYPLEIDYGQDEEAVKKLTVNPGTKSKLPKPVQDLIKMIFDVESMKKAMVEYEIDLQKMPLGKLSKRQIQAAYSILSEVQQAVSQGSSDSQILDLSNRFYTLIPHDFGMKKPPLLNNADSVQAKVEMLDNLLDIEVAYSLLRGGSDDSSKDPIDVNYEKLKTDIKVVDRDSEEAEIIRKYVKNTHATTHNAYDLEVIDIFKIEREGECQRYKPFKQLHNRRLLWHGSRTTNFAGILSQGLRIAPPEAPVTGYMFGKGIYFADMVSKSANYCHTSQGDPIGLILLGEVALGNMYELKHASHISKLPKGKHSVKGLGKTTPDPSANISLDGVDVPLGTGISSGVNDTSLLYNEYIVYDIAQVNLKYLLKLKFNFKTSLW
Method: (§1) As such, PARP enzymatic activity transfers ADP-ribose from NAD + substrate into the PAR chain on histone substrate. The amount of NAD + remaining after the enzymatic activity was quantified using the Promega NAD/NADH-Glo™ assay kit, in the endpoint PARP activity assay.
(§2) Enzyme inhibition assays were performed by the Reaction Biology Corporation, Malvern, PA. (http://www.reactionbiology.com). PARP enzymatic activity transfers ADP-ribose from NAD + substrate into the PAR chain on histone substrate. […] NAD+ (Nicotinamide Adenine Dinucleotide), 500 nM; Protein substrate for PARP1, core histones from chicken, 10 µg/mL; protein substrate for PARP2, 5 µM.

PARP2 = target: T2, PARP2 (Homo sapiens, UniProt Q9UGN5); assay: as above; assay type: biochemical; conditions: 10-dose IC50, 3-fold serial dilution
T2 construct: Reaction Biology Corporation (assay service)
T2 sequence (Q9UGN5 whole entry): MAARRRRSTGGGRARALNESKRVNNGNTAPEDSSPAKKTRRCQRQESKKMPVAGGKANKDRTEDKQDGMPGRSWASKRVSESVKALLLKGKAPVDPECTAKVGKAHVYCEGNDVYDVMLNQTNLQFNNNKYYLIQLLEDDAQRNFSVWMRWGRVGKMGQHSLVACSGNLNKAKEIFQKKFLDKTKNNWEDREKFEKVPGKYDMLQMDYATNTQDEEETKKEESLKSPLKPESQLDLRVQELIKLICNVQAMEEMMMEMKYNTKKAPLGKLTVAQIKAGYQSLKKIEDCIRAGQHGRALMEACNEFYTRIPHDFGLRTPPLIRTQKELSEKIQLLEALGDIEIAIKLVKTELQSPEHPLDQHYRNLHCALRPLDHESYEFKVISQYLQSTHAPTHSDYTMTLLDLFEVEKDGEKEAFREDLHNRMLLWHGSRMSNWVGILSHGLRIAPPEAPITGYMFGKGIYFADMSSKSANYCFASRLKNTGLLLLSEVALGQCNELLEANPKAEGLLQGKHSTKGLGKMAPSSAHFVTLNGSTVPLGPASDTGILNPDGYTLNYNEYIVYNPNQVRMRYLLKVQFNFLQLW
Method: as §1, §2

Ishikawa cell lines = assay: In-vitro cytotoxicity (MTT cell viability assay); assay type: cell-based; conditions: Homo sapiens; Ishikawa cell lines, MTT, 48 h incubation, mean ± SD, at least three experiments; read-out: IC50 values (Ishikawa cell lines, µM ± SD), in-vitro growth inhibition
Method: The cell growth inhibitory effects of the synthesised compounds were evaluated against Ishikawa cell lines. […] Forth, the synthesised compounds bearing a substituted phenyl ring at position 2 of the biaryl arm bearing benzopyrans were profiled for the cytotoxic effects. Noteworthy to mention that diverse substitutions with varied electronic effects viz fluorine (−I, +R), methoxy (−I, +R), and nitro (−I and − R) were made on the phenyl ring (position 2 of benzopyran). Also, the trimethoxy phenyl ring well established as an imperative structural feature of tubulin inhibitors was tethered to the benzopyran scaffold (20, 21).
Ishikawa cells (a human endometrial carcinoma of the epithelial cell) were kindly gifted by Dr. Geetanjali Sachdeva and Dr. Uddhav Chaudhari of National Institute for Research In Reproductive and Child Health (NIRRCH), Mumbai. […] The cells were maintained in RPMI medium supplemented with 10% Foetal bovine serum (FBS) and 100 IU/mL penicillin.
Mitochondrial activity was evaluated by MTT assay.[59] This assay is based on enzymatic reduction of the yellow-colored MTT dye to purple-colored formazan crystals by a variety of mitochondrial and cytosolic enzymes that are operational in viable cells. Briefly, […] (3000 cells/well) were seeded in 100 µL of medium into a 96-well plate and left to settle in a CO2 incubator. […] Then 150 μL of DMSO was added to each well to dissolve the formazan crystals. The optical density (OD) of each well was recorded using a microplate reader at a wavelength of 570 nm. The percentages of cell viability and growth inhibition were calculated according to the following equations. Cell viability (%) = [(OD of treated cells-OD of blank)/(OD of control-OD of blank) ×100].

LC3 in Ishikawa cells = assay: Western blotting, cleavage of LC-3; assay type: cell-based, human; conditions: Ishikawa cells, 100, 500 and 1000 nM, 24 h
Method: Literature precedents indicate that autophagy triggers the cleavage of tubulin-associated protein LC-3 yielding cytosolic LC3-I (18 kDa) and autophagosome-associated LC3-II (16 kDa).[50–58] Thus, the ability of compound 14 was evaluated to induce the cleavage of this cytosolic protein. […] Considering the aforementioned cleavage of cytosolic microtubule-associated protein light chain-3 (LC3)-I into LC3-II as an autophagy-specific marker, it was deduced that 14 is an autophagy inducer.
Ishikawa cells were treated with compound-14 at 100, 500, and 1000 nM concentrations for 24 h. After 24h cells were collected and centrifuged at 400 g, washed in PBS and cell pellets were lysed in RIPA buffer in preparation of the whole cell lysate. Supernatants were collected and proteins were estimated using the Bradford reagent. An equal amount of protein (60–80 µg) was loaded into each well for SDS-PAGE. Blocking was done with 5% BSA at room temperature with shaking for 2 h. After the SDS page run was completed, we washed the PVDF membrane and then blocking was done. Blots were incubated with different primary antibodies(1:1000 dilutions), and secondary antibodies (1:10 000 dilutions) and chemiluminescence was captured on Chemidoc after incubating the blots in ECL plus solution. […]

[1] = tested on: CDK1 protein in Ishikawa cells; assay: Western blotting, cell cycle proteins; assay type: cell-based, human; conditions: 24 h treatment
Method: Western blot analysis was performed to assess the involvement of proteins in the cell cycle arrest effects of compound 14 on Ishikawa cells.
Ishikawa cells were treated with compound-14 at 100, 500, and 1000 nM concentrations for 24 h. After 24h cells were collected and centrifuged at 400 g, washed in PBS and cell pellets were lysed in RIPA buffer in preparation of the whole cell lysate. Supernatants were collected and proteins were estimated using the Bradford reagent. An equal amount of protein (60–80 µg) was loaded into each well for SDS-PAGE. Blocking was done with 5% BSA at room temperature with shaking for 2 h. After the SDS page run was completed, we washed the PVDF membrane and then blocking was done. Blots were incubated with different primary antibodies(1:1000 dilutions), and secondary antibodies (1:10 000 dilutions) and chemiluminescence was captured on Chemidoc after incubating the blots in ECL plus solution.
Primary Antibodies: LC3B Antibody (Cell signalling Technology, Cat No:2775), Cyclin B1 (Cell signalling Technology, Cat No:4138), SKP-2 (Cell signalling Technology, Cat No:4358), CDK1 (Abcam, Anti-CDK1 antibody [A17]), cdc25c (Cell signalling Technology, Cat No:4688); internal control: Actin (Sigma Aldrich, Cat No: A5441);

Ishikawa cells = assay: Nuclear and cellular morphology (DAPI staining), apoptosis; assay type: cell-based, human; conditions: Ishikawa cells, 0.1, 0.5 and 1 μM, 24 h
Method: Ishikawa cell lines were treated with compound 14 at concentrations of 0.1, 0.5, and 1 μM for 24 h. Cellular morphology was observed by an inverted microscope. DAPI staining was done to monitor the nuclear morphology. […] Thus, the results were indicative of the apoptosis-inducing ability of compound 14 (Figure 9).
Ishikawa was treated with compounds 14 at concentrations of 0.1, 0.5, and 1 μM for 24 h. Briefly, cells were collected, washed twice with PBS, and fixed with methanol: acetic acid (3:1 ratio v/v). The next day, cells were washed and dispensed in 50 μL of fixing solution. Cells were then spread on clean slides, and exposed to DAPI solution (4′,6-diamidino-2-phenylindole(DAPI) (CAS Number: 28718–90-3) (5 μg/mL in 0.01 M citric acid and 0.45 M disodium phosphate containing 0.05% Tween 20) for 30 min at room temperature. The slides were then rinsed with distilled water for 10 min, and washed with PBS. After drying, the slides were mounted with glycerol: PBS (1:1 ratio v/v) and observed under the fluorescent microscope to figure out any nuclear morphological changes that occur during apoptosis.[60]

O=c1cc(-c2ccc(F)cc2)oc2cc(-c3ccoc3)ccc12 [Compound 14, 2–(4-fluorophenyl)-7-(furan-3-yl)-4H-chromen-4-one]
IC50 (PARP1): 74 nM and 74.6 nM
IC50 (PARP2): 109 nM
IC50 (Ishikawa cell lines): 1 ± 0.4 µM
Cleavage of LC-3 (autophagy marker, western blot) (LC3 in Ishikawa cells): concentration-dependent cleavage of LC3
Expression of CDK1 protein (western blot) [1]: downregulated the expression of CDK1 protein
Apoptosis induction (nuclear morphology, DAPI staining) (Ishikawa cells): concentration-dependent increase in the number of scattered apoptotic bodies
